According to the NIST ThermoML archive (doi:10.1016/j.jct.2017.03.006):
Numbers after ± are expanded uncertainties.

Assay: xn = mol fraction of the nth substance listed
Details: 333.15 K, Liquid, Vibrating tube method

Cc1ccc(C)c(C)c1 [1,2,4-trimethylbenzene] + CCC(C)O
mass density [kg/m3]
Details | x2 = 0 | x2 = 0.1 | x2 = 0.1989 | x2 = 0.3011 | x2 = 0.4002 | x2 = 0.5001 | x2 = 0.5997 | x2 = 0.6999 | x2 = 0.7999 | x2 = 0.9
40000 kPa | – | – | – | – | – | – | – | – | 819.7 ± 0.8 | 812.1 ± 0.8
50000 kPa | 877.4 ± 0.8 | 871.2 ± 0.8 | 865.3 ± 0.8 | 859.2 ± 0.8 | 853.2 ± 0.8 | 847.6 ± 0.8 | 840.5 ± 0.8 | 833.4 ± 0.8 | 826.3 ± 0.8 | 818.7 ± 0.8
60000 kPa | 883 ± 0.8 | 876.9 ± 0.8 | 871.1 ± 0.8 | 865.1 ± 0.8 | 859.1 ± 0.8 | 853.7 ± 0.8 | 846.6 ± 0.8 | 839.5 ± 0.8 | 832.5 ± 0.8 | 824.9 ± 0.8
70000 kPa | 888.2 ± 0.8 | 882.5 ± 0.8 | 876.6 ± 0.8 | 870.6 ± 0.8 | 864.8 ± 0.8 | 859.3 ± 0.8 | 852.3 ± 0.8 | 845.3 ± 0.8 | 838.4 ± 0.9 | 830.7 ± 0.9
80000 kPa | 893.2 ± 0.8 | 887.6 ± 0.8 | 881.9 ± 0.8 | 875.9 ± 0.8 | 870.1 ± 0.8 | 864.7 ± 0.8 | 857.8 ± 0.9 | 850.8 ± 0.9 | 843.7 ± 0.9 | 836.2 ± 0.9
90000 kPa | 898 ± 0.8 | 892.5 ± 0.8 | 886.9 ± 0.8 | 881 ± 0.8 | 875.2 ± 0.9 | 869.8 ± 0.9 | 862.9 ± 0.9 | 856 ± 0.9 | 849 ± 0.9 | 841.4 ± 0.9
100000 kPa | 902.5 ± 0.8 | 897.2 ± 0.8 | 891.7 ± 0.8 | 885.8 ± 0.9 | 880 ± 0.9 | 874.7 ± 0.9 | 867.9 ± 0.9 | 860.9 ± 0.9 | 853.9 ± 0.9 | 846.4 ± 0.9
110000 kPa | 906.9 ± 0.8 | 901.8 ± 0.8 | 896.2 ± 0.9 | 890.5 ± 0.9 | 884.7 ± 0.9 | 879.4 ± 0.9 | 872.6 ± 0.9 | 865.7 ± 0.9 | 858.7 ± 1 | 851.2 ± 1
120000 kPa | 911.1 ± 0.8 | 906.1 ± 0.8 | 900.7 ± 0.9 | 894.8 ± 0.9 | 889.1 ± 0.9 | 883.9 ± 0.9 | 877.1 ± 0.9 | 870.2 ± 0.9 | 863.2 ± 1 | 855.7 ± 1
130000 kPa | 915.1 ± 0.8 | 910.3 ± 0.9 | 904.9 ± 0.9 | 899.1 ± 0.9 | 893.4 ± 0.9 | 888.2 ± 0.9 | 881.5 ± 0.9 | 874.5 ± 1 | 867.5 ± 1 | 860.1 ± 1
140000 kPa | 919 ± 0.8 | 914.3 ± 0.9 | 909.1 ± 0.9 | 903 ± 0.9 | 897.5 ± 0.9 | 892.2 ± 0.9 | 885.9 ± 1 | 878.5 ± 1 | 871.5 ± 1 | 864 ± 1
